Source: ChEMBL document CHEMBL4619724, “Environment-sensitive fluorescent inhibitors of histone deacetylase” (Bioorg Med Chem Lett, 2020)

Assays:
Histone deacetylase = experiment: Inhibition of HDAC in human HeLa cell extracts assessed as inhibition of substrate deacetylation using Boc-Lys (acetyl)-AMC as substrate by fluorescence based assay
MOLT-4 [1] = experiment: Antiproliferative activity against human MOLT4 cells incubated for 24 hrs by CCK8 assay; format: functional, cell-based; conditions: MOLT-4, 24 h
MOLT-4 [2] = experiment: Induction of apoptosis in human MOLT4 cells assessed as increase in apoptotic cells at 5 uM incubated for 24 hrs by Annexin V and PE staining based flow cytometric analysis relative to control; format: functional
A549 = experiment: Antiproliferative activity against human A549 cells incubated for 24 hrs by CCK8 assay; format: functional, cell-based; conditions: A549, 24 h
K562 = experiment: Antiproliferative activity against human K562 cells incubated for 24 hrs by CCK8 assay; format: functional, cell-based; conditions: K562, 24 h
PC-3 = experiment: Antiproliferative activity against human PC3 cells incubated for 24 hrs by CCK8 assay; format: functional, cell-based; conditions: PC-3, 24 h
[3] = Drug uptake in human MOLT4 cell membrane at 5 uM incubated for 30 mins by DID staining based confocal microscopic method; format: ADME; conditions: molt-4, 0.5 h
[4] = Drug uptake in cytoplasm in human PC3 cells overexpressing HDAC at 5 uM incubated for 30 mins by fluorescence microscopic method; format: ADME, subcellular; conditions: pc-3, 0.5 h
[5] = Drug uptake in nucleus in human MOLT4 cells at 5 uM incubated for 30 mins by Hoechst 33342 staining based confocal microscopic method; format: ADME, subcellular; conditions: molt-4, 0.5 h
[6] = Drug uptake in tumor tissue of nude mouse xenografted with human PC3 cells assessed as increase in fluorescence intensity in tumor tissue at 10 uM in presence of HDAC inhibitor, SAHA by fluorescence upright microscopic method; format: ADME, tissue-based, Neoplasm, PC-3; conditions: in vivo
[7] = Drug uptake in cytoplasm in human MOLT4 cells overexpressing HDAC at 5 uM incubated for 30 mins by fluorescence microscopic method; format: ADME, subcellular; conditions: molt-4, 0.5 h
[8] = Drug uptake in cytoplasm in HEK293 cells harboring low HDAC expression at 5 uM incubated for 30 mins by fluorescence microscopic method; format: ADME, subcellular; conditions: human, hek293, 0.5 h
[9] = Drug uptake in tumor tissue of nude mouse xenografted with human PC3 cells assessed as increase in fluorescence intensity at 10 uM by fluorescence upright microscopic method; format: ADME, tissue-based, Neoplasm, PC-3; conditions: in vivo
[10] = Drug uptake in nude mouse skin assessed as increase in fluorescence intensity in tissue at 10 uM by fluorescence upright microscopic method; format: ADME, tissue-based, Zone of skin; conditions: in vivo
[11] = Drug uptake in nude mouse thigh muscles assessed as increase in fluorescence intensity in tissue at 10 uM by fluorescence upright microscopic method; format: ADME, tissue-based, Thigh muscle; conditions: in vivo

SMILES	IC50 (Histone deacetylase) [µM]	IC50 (MOLT-4 [1]) [µM]	Activity (MOLT-4 [2]) [%]	IC50 (A549) [µM]	IC50 (K562) [µM]	IC50 (PC-3) [µM]	also measured
CC(C)CC(NC(=O)NCCCCCNc1ccc(S(=O)(=O)N(C)C)c2nonc12)C(=O)NO (configuration not stated)	> 100	–	–	–	–	–	–
CN(C)S(=O)(=O)c1ccc(NCCCCCC(=O)NO)c2nonc12	–	3.55	23.3	> 100	15.2	31.2	–
CN(C)S(=O)(=O)c1ccc(NCCCCCNC(=O)NCC(=O)NO)c2nonc12	7.58	–	–	–	–	–	–
CN(C)S(=O)(=O)c1ccc(NCCCCCCC(=O)NO)c2nonc12	–	7.84	20.02	> 100	11	52.6	Drug uptake [3]: 62.1%; Drug uptake [4]: Active; Drug uptake [5]: Not Active; Drug uptake [6]: Not Active; Drug uptake [7]: Active; Drug uptake [8]: Not Active; Drug uptake [9]: Active; Drug uptake [10]: Not Active; Drug uptake [11]: Not Active
O=C(CCCCCCC(=O)Nc1ccccc1)NO [VORINOSTAT]	–	–	29.58	–	–	–	–
